According to the supplement of paper PMC8612539:
≈ marks a conversion by molar mass, not a printed value.

System: Escherichia coli
Assay: minimum inhibitory concentration (MIC)
Method: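 Broth microdilution MIC (Sensititre BOPO7F bovine plate, CLSI methods) of 19 antimicrobials against field isolates of P. multocida, M. haemolytica, H. somni (deep nasopharyngeal swabs) and E. coli, Enterococcus spp. (rectal swabs) from weaned dairy heifers. Incubation 16-24 h at 35 C. MIC is the lowest concentration preventing visible growth. Values with <= or > lie at the tested range limits. Trimethoprim-sulfamethoxazole is given as the trimethoprim component of a 1:19 mixture.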

CS(=O)(=O)c1ccc([C@@H](O)[C@@H](CF)NC(=O)C(Cl)Cl)cc1 [Florfenicol]
Settings	minimum inhibitory concentration [µg/mL]
isolate (source animal id): 8	4 (≈ 11.2 µM)
isolate (source animal id): 9	> 8
isolate (source animal id): 10	4 (≈ 11.2 µM)
isolate (source animal id): 11	2 (≈ 5.58 µM)
isolate (source animal id): 12	> 8
isolate (source animal id): 13	8 (≈ 22.3 µM)
isolate (source animal id): 14	> 8
isolate (source animal id): 15	> 8
isolate (source animal id): 16	> 8
isolate (source animal id): 98	2 (≈ 5.58 µM)
isolate (source animal id): 99	4 (≈ 11.2 µM)
isolate (source animal id): 100	> 8
isolate (source animal id): 101	> 8
isolate (source animal id): 102	> 8
isolate (source animal id): 103	4 (≈ 11.2 µM)
isolate (source animal id): 104	> 8
isolate (source animal id): 105	> 8
isolate (source animal id): 106	> 8
isolate (source animal id): 107	> 8
isolate (source animal id): 108	> 8
isolate (source animal id): 109	> 8
isolate (source animal id): 110	> 8
isolate (source animal id): 111	4 (≈ 11.2 µM)
isolate (source animal id): 112	> 8
isolate (source animal id): 113	> 8
isolate (source animal id): 114	4 (≈ 11.2 µM)
isolate (source animal id): 115	> 8
isolate (source animal id): 116	> 8
isolate (source animal id): 117	> 8
isolate (source animal id): 118	> 8
isolate (source animal id): 119	> 8
isolate (source animal id): 120	> 8
isolate (source animal id): 121	> 8
isolate (source animal id): 122	> 8
isolate (source animal id): 123	> 8
isolate (source animal id): 124	> 8
isolate (source animal id): 125	> 8
isolate (source animal id): 126	> 8
isolate (source animal id): 127	> 8
isolate (source animal id): 128	> 8
isolate (source animal id): 129	> 8
isolate (source animal id): 130	> 8
isolate (source animal id): 131	> 8
isolate (source animal id): 132	> 8
isolate (source animal id): 133	> 8
isolate (source animal id): 134	> 8
isolate (source animal id): 135	8 (≈ 22.3 µM)
isolate (source animal id): 136	> 8
isolate (source animal id): 137	> 8
isolate (source animal id): 138	> 8
isolate (source animal id): 139	> 8
isolate (source animal id): 140	4 (≈ 11.2 µM)
isolate (source animal id): 141	> 8
isolate (source animal id): 142	> 8
isolate (source animal id): 143	> 8
isolate (source animal id): 144	> 8
isolate (source animal id): 145	> 8
isolate (source animal id): 146	> 8
isolate (source animal id): 147	> 8
isolate (source animal id): 148	> 8
isolate (source animal id): 149	4 (≈ 11.2 µM)
isolate (source animal id): 150	> 8
isolate (source animal id): 151	> 8
isolate (source animal id): 152	> 8
isolate (source animal id): 153	> 8
isolate (source animal id): 154	> 8
isolate (source animal id): 155	> 8
isolate (source animal id): 156	> 8
isolate (source animal id): 157	> 8
isolate (source animal id): 158	> 8
isolate (source animal id): 159	> 8
isolate (source animal id): 160	> 8
isolate (source animal id): 161	> 8
isolate (source animal id): 162	> 8
isolate (source animal id): 163	> 8
isolate (source animal id): 164	> 8
isolate (source animal id): 165	> 8
isolate (source animal id): 166	> 8
isolate (source animal id): 167	8 (≈ 22.3 µM)
isolate (source animal id): 168	2 (≈ 5.58 µM)
isolate (source animal id): 169	8 (≈ 22.3 µM)
isolate (source animal id): 170	4 (≈ 11.2 µM)
isolate (source animal id): 171	4 (≈ 11.2 µM)
isolate (source animal id): 172	2 (≈ 5.58 µM)
isolate (source animal id): 173	> 8
isolate (source animal id): 174	4 (≈ 11.2 µM)
isolate (source animal id): 175	8 (≈ 22.3 µM)
isolate (source animal id): 176	4 (≈ 11.2 µM)
isolate (source animal id): 177	> 8
isolate (source animal id): 178	> 8
isolate (source animal id): 179	4 (≈ 11.2 µM)
isolate (source animal id): 180	4 (≈ 11.2 µM)
isolate (source animal id): 181	> 8
isolate (source animal id): 182	4 (≈ 11.2 µM)
isolate (source animal id): 183	> 8
isolate (source animal id): 184	4 (≈ 11.2 µM)
isolate (source animal id): 185	> 8
isolate (source animal id): 186	4 (≈ 11.2 µM)
isolate (source animal id): 187	> 8
isolate (source animal id): 188	> 8

CC1(C)S[C@@H]2[C@H](NC(=O)Cc3ccccc3)C(=O)N2[C@H]1C(=O)O [Penicillin]
Settings	minimum inhibitory concentration [µg/mL]
isolate (source animal id): 8	> 8
isolate (source animal id): 9	> 8
isolate (source animal id): 10	> 8
isolate (source animal id): 11	> 8
isolate (source animal id): 12	> 8
isolate (source animal id): 13	> 8
isolate (source animal id): 14	> 8
isolate (source animal id): 15	> 8
isolate (source animal id): 16	> 8
isolate (source animal id): 98	> 8
isolate (source animal id): 99	> 8
isolate (source animal id): 100	> 8
isolate (source animal id): 101	4 (≈ 12 µM)
isolate (source animal id): 102	> 8
isolate (source animal id): 103	> 8
isolate (source animal id): 104	> 8
isolate (source animal id): 105	> 8
isolate (source animal id): 106	> 8
isolate (source animal id): 107	> 8
isolate (source animal id): 108	> 8
isolate (source animal id): 109	> 8
isolate (source animal id): 110	> 8
isolate (source animal id): 111	> 8
isolate (source animal id): 112	> 8
isolate (source animal id): 113	> 8
isolate (source animal id): 114	> 8
isolate (source animal id): 115	> 8
isolate (source animal id): 116	> 8
isolate (source animal id): 117	> 8
isolate (source animal id): 118	> 8
isolate (source animal id): 119	> 8
isolate (source animal id): 120	> 8
isolate (source animal id): 121	> 8
isolate (source animal id): 122	8 (≈ 23.9 µM)
isolate (source animal id): 123	> 8
isolate (source animal id): 124	> 8
isolate (source animal id): 125	> 8
isolate (source animal id): 126	> 8
isolate (source animal id): 127	> 8
isolate (source animal id): 128	> 8
isolate (source animal id): 129	> 8
isolate (source animal id): 130	> 8
isolate (source animal id): 131	> 8
isolate (source animal id): 132	> 8
isolate (source animal id): 133	> 8
isolate (source animal id): 134	> 8
isolate (source animal id): 135	> 8
isolate (source animal id): 136	> 8
isolate (source animal id): 137	> 8
isolate (source animal id): 138	> 8
isolate (source animal id): 139	8 (≈ 23.9 µM)
isolate (source animal id): 140	> 8
isolate (source animal id): 141	> 8
isolate (source animal id): 142	> 8
isolate (source animal id): 143	> 8
isolate (source animal id): 144	> 8
isolate (source animal id): 145	> 8
isolate (source animal id): 146	> 8
isolate (source animal id): 147	> 8
isolate (source animal id): 148	> 8
isolate (source animal id): 149	> 8
isolate (source animal id): 150	> 8
isolate (source animal id): 151	8 (≈ 23.9 µM)
isolate (source animal id): 152	> 8
isolate (source animal id): 153	> 8
isolate (source animal id): 154	> 8
isolate (source animal id): 155	> 8
isolate (source animal id): 156	> 8
isolate (source animal id): 157	> 8
isolate (source animal id): 158	> 8
isolate (source animal id): 159	> 8
isolate (source animal id): 160	> 8
isolate (source animal id): 161	> 8
isolate (source animal id): 162	> 8
isolate (source animal id): 163	> 8
isolate (source animal id): 164	> 8
isolate (source animal id): 165	> 8
isolate (source animal id): 166	> 8
isolate (source animal id): 167	> 8
isolate (source animal id): 168	> 8
isolate (source animal id): 169	> 8
isolate (source animal id): 170	> 8
isolate (source animal id): 171	> 8
isolate (source animal id): 172	> 8
isolate (source animal id): 173	> 8
isolate (source animal id): 174	> 8
isolate (source animal id): 175	> 8
isolate (source animal id): 176	> 8
isolate (source animal id): 177	> 8
isolate (source animal id): 178	> 8
isolate (source animal id): 179	> 8
isolate (source animal id): 180	> 8
isolate (source animal id): 181	> 8
isolate (source animal id): 182	> 8
isolate (source animal id): 183	> 8
isolate (source animal id): 184	> 8
isolate (source animal id): 185	> 8
isolate (source animal id): 186	> 8
isolate (source animal id): 187	> 8
isolate (source animal id): 188	> 8

NC[C@@H]1O[C@H](O[C@H]2[C@@H](O)[C@H](O[C@@H]3[C@@H](O)[C@H](N)C[C@H](N)[C@H]3O[C@H]3O[C@H](CN)[C@@H](O)[C@H](O)[C@H]3N)O[C@@H]2CO)[C@H](N)[C@@H](O)[C@@H]1O [Neomycin]
Settings	minimum inhibitory concentration [µg/mL]
isolate (source animal id): 8	32 (≈ 52.1 µM)
isolate (source animal id): 9	≤ 4
isolate (source animal id): 10	> 32
isolate (source animal id): 11	≤ 4
isolate (source animal id): 12	≤ 4
isolate (source animal id): 13	≤ 4
isolate (source animal id): 14	32 (≈ 52.1 µM)
isolate (source animal id): 15	≤ 4
isolate (source animal id): 16	≤ 4
isolate (source animal id): 98	≤ 4
isolate (source animal id): 99	≤ 4
isolate (source animal id): 100	≤ 4
isolate (source animal id): 101	≤ 4
isolate (source animal id): 102	≤ 4
isolate (source animal id): 103	≤ 4
isolate (source animal id): 104	≤ 4
isolate (source animal id): 105	≤ 4
isolate (source animal id): 106	> 32
isolate (source animal id): 107	≤ 4
isolate (source animal id): 108	≤ 4
isolate (source animal id): 109	≤ 4
isolate (source animal id): 110	≤ 4
isolate (source animal id): 111	> 32
isolate (source animal id): 112	> 32
isolate (source animal id): 113	≤ 4
isolate (source animal id): 114	≤ 4
isolate (source animal id): 115	> 32
isolate (source animal id): 116	≤ 4
isolate (source animal id): 117	> 32
isolate (source animal id): 118	≤ 4
isolate (source animal id): 119	≤ 4
isolate (source animal id): 120	> 32
isolate (source animal id): 121	≤ 4
isolate (source animal id): 122	> 32
isolate (source animal id): 123	≤ 4
isolate (source animal id): 124	≤ 4
isolate (source animal id): 125	≤ 4
isolate (source animal id): 126	≤ 4
isolate (source animal id): 127	≤ 4
isolate (source animal id): 128	≤ 4
isolate (source animal id): 129	≤ 4
isolate (source animal id): 130	≤ 4
isolate (source animal id): 131	≤ 4
isolate (source animal id): 132	> 32
isolate (source animal id): 133	≤ 4
isolate (source animal id): 134	≤ 4
isolate (source animal id): 135	≤ 4
isolate (source animal id): 136	≤ 4
isolate (source animal id): 137	> 32
isolate (source animal id): 138	≤ 4
isolate (source animal id): 139	≤ 4
isolate (source animal id): 140	≤ 4
isolate (source animal id): 141	> 32
isolate (source animal id): 142	≤ 4
isolate (source animal id): 143	> 32
isolate (source animal id): 144	≤ 4
isolate (source animal id): 145	> 32
isolate (source animal id): 146	≤ 4
isolate (source animal id): 147	> 32
isolate (source animal id): 148	≤ 4
isolate (source animal id): 149	≤ 4
isolate (source animal id): 150	> 32
isolate (source animal id): 151	≤ 4
isolate (source animal id): 152	≤ 4
isolate (source animal id): 153	≤ 4
isolate (source animal id): 154	≤ 4
isolate (source animal id): 155	32 (≈ 52.1 µM)
isolate (source animal id): 156	> 32
isolate (source animal id): 157	≤ 4
isolate (source animal id): 158	> 32
isolate (source animal id): 159	≤ 4
isolate (source animal id): 160	> 32
isolate (source animal id): 161	> 32
isolate (source animal id): 162	≤ 4
isolate (source animal id): 163	≤ 4
isolate (source animal id): 164	≤ 4
isolate (source animal id): 165	32 (≈ 52.1 µM)
isolate (source animal id): 166	≤ 4
isolate (source animal id): 167	≤ 4
isolate (source animal id): 168	≤ 4
isolate (source animal id): 169	≤ 4
isolate (source animal id): 170	≤ 4
isolate (source animal id): 171	≤ 4
isolate (source animal id): 172	≤ 4
isolate (source animal id): 173	≤ 4
isolate (source animal id): 174	≤ 4
isolate (source animal id): 175	≤ 4
isolate (source animal id): 176	≤ 4
isolate (source animal id): 177	≤ 4
isolate (source animal id): 178	≤ 4
isolate (source animal id): 179	≤ 4
isolate (source animal id): 180	≤ 4
isolate (source animal id): 181	32 (≈ 52.1 µM)
isolate (source animal id): 182	≤ 4
isolate (source animal id): 183	≤ 4
isolate (source animal id): 184	≤ 4
isolate (source animal id): 185	≤ 4
isolate (source animal id): 186	≤ 4
isolate (source animal id): 187	32 (≈ 52.1 µM)
isolate (source animal id): 188	≤ 4
